`Oc1ccc(CC2NCCC3=C2CCCC3)cc1` (single isomer, unassigned; (+)) showed a melting point of 154 to 156 °C.
`C[C@@H](Cn1ncc2ccc(O)c(Br)c21)O[Si](C)(C)C(C)(C)C` showed a melting point of 103 to 105 °C.
`CCC1(C(=O)Nc2ccc(OC)cc2)CCCCC1C` (stereo unspecified) gave a melting point of 107 °C.
With `CN(C)CCCCN1CCOc2cc3ncc(C#N)c(Nc4ccc(F)c(Cl)c4)c3cc21` the melting point was 105 °C.
Compound `CCOc1ccc2nc(COc3ccc(CC4SC(=O)N(C(c5ccccc5)(c5ccccc5)c5ccccc5)C4=O)cc3)n(C)c2n1` (stereo unspecified) has a melting point of 88 to 100 °C.
`Oc1cc(Oc2ncc(C(F)(F)F)cc2Cl)ccc1Br` showed a melting point of 124 to 127 °C.
For `COc1cc(N2CCN([C@H]3CC[C@H](c4cn(C)c5ccc(C#N)cc54)CC3)CC2)c2ncccc2c1C`, the melting point was 212 to 213 °C.
For `CC(C)(C)OC(=O)Nc1cc(N2CCC(OC3CCCCO3)CC2)c(-c2ccc(F)cc2)cc1NC(=O)CC(=O)c1cccc(-n2ccnc2)c1` (racemic), the melting point was 129 to 132 °C.
`N#Cc1cc(Cn2cncn2)cc(-c2ccc(OS(N)(=O)=O)cc2)c1` showed a melting point of 166 to 167 °C.
For `COC(=O)COc1ccc2cc(-c3cnc(-c4cn(C)c5ccccc45)o3)ccc2c1`, the melting point was 187 to 189 °C.
Work on `Cc1cc(C(=O)c2ccccc2)c(C)n1C(C)C(=O)Nc1ccccc1` (stereo unspecified) yielded a melting point of 165 to 166 °C.
Compound `CCC(CC)Nc1cc(C)nc(Oc2c(C)cc(C)cc2C)c1C(N)=O` has a melting point of 85 to 88 °C.
With `Cn1ncnc1COc1nc2c(cc1C(C)(C)C)nnn2-c1c(F)cccc1F` the melting point was 105 to 108 °C.
For `CCCN(CCC)C(=O)Cn1c(-c2ccc(Br)cc2)nc2cccnc21`, the melting point was 153 to 155 °C.
`CCOC(=O)/C(=C\Nc1ccc(OC)c(OC)c1)c1ccc(OC)cc1` showed a melting point of 88 to 89 °C.
`O=C(CCCCCSc1ccc(Cl)cc1)NO` showed a melting point of 83 to 85 °C.
Compound `CC(c1oc2ccccc2c(=O)c1-c1cccc(F)c1)n1cnc2c(N)ncnc21` (stereo unspecified) has a melting point of 155 to 158 °C.
For `OCc1ccc(-c2ccc3nc(-c4ccc(Cl)cc4)cn3c2)o1`, the melting point was 197 to 199 °C.
Work on `CN1Cc2cccc(S(N)(=O)=O)c2S1(=O)=O` yielded a melting point of 195 to 197 °C.
For `Cn1c(C(F)(F)F)nn(-c2cc(NS(C)(=O)=O)c(C#N)cc2F)c1=O`, the melting point was 67 °C.
With `NC1(C2CCCC2=O)OCCO1` (stereo unspecified) the melting point was 134 to 136 °C.
For `COc1cccc2c(=O)n(/C=C/C(=O)O)cnc12`, the melting point was 289 to 291 °C.
In the case of `O=C(Nc1c(F)cccc1F)c1ccc(-n2nc(C(F)(F)F)cc2C2CC2)cc1`, the melting point is reported as 145 to 147 °C.
For `O=P(O)(O)C1(P(=O)(O)O)CCCCCN1`, the melting point was 275 °C.
`CCOC(=O)c1ccc(NCc2ccc3ccc4nc(C)[nH]c(=O)c4c3c2)cc1F` showed a melting point greater than 200 °C.
`COc1cc(CI)ccc1C12CC3CC(CC(C3)C1)C2` gave a melting point of 143 to 144 °C.
`CCc1cccc(C)c1CNc1nc(C(=O)N2CCCC2)cn2c(C)c(C)nc12` showed a melting point of 197 °C.
With `CCCCS(=O)(=O)Nc1cccc(COc2cccc3cccnc23)c1` the melting point was 136 to 137 °C.
In the case of `CCCN1C(=O)N2C[C@@H](Cc3ccccc3)N=C2c2c1nc(CCl)n2Cc1ccccc1`, the melting point is reported as 112 to 113 °C.
Work on `O=C1CCCCC1c1cnc2ccccc2c1` (stereo unspecified) yielded a melting point of 114 to 115 °C.
Work on `CCNC(=O)Nc1cnc2ccc(Cl)nc2n1` yielded a melting point of 240 °C.
`O=C(OCc1ccccc1)N1C[C@@H]2CN(c3ccc(N4C[C@H](CO)OC4=O)cc3F)C[C@@H]2C1` showed a melting point of 168 to 171 °C.
Work on `Fc1cc(F)c(-c2c(Cl)nc3nccn3c2N2CCCCCC2)c(F)c1` yielded a melting point of 106 to 108 °C.
In the case of `COCOc1cc(OC)c(OCOC)c(CCO)c1OC`, the melting point is reported as 121 to 123 °C.
In the case of `O=C(O)Cc1ccc(NC(=O)C(COc2ccc(Cl)cc2)NS(=O)(=O)c2ccc(F)cc2)cc1` (racemic), the melting point is reported as 184 to 186 °C.
Compound `O=C1Nc2ccc(Cl)cc2C1c1ncnc2c1cnn2C1CCCC1` (stereo unspecified) has a melting point of 304 to 306 °C.
For `CCOC(=O)c1c(N2CCN(C(=O)c3ccco3)CC2)c2cc(F)cnc2n(Cc2ccccc2)c1=O`, the melting point was 119 °C.
`CCOc1nc(OCC)nc(-n2nc(SC)nc2N)n1` gave a melting point of 201 °C.
For `COc1cc2c3c(n(Cc4ccccc4)c2cc1OC)CCCC3C(=O)N1CCN(c2ccccc2)CC1` (stereo unspecified), the melting point was 245 to 247 °C.
Work on `CCOC(=O)C1=C(N(C)C)N=C(C)C(C(=O)OCC)C1c1cccc(Cl)c1` (stereo unspecified) yielded a melting point of 79 °C.
`CNS(=O)(=O)c1ccc(-c2c(Cl)nc(C(F)(F)F)nc2-c2ccc(S(C)(=O)=O)cc2)cc1` showed a melting point of 226 to 230 °C.
Work on `CCc1ccc(-c2ccc(F)cc2)cc1` yielded a melting point of 60 to 63 °C.
In the case of `COC(=O)c1cccc(-c2nc(C(Cl)(Cl)Cl)nc(C(Cl)(Cl)Cl)n2)c1`, the melting point is reported as 115 to 117 °C.
With `CC(C)OC(=O)Cc1nc(-c2ccc(F)cc2)oc1-c1ccsc1` the melting point was 108 to 110 °C.
In the case of `CCN(CC)C(=O)c1ccc(C(c2cccc(O)c2)N2CC(C)NCC2C)cc1` (stereo unspecified), the melting point is reported as 175 to 177 °C.
For `CC(C)=CCOC(=O)c1cnn(-c2c(Cl)cc(Cl)cc2Cl)c1N`, the melting point was 102 to 105 °C.
In the case of `O=C1NC(Cc2ccncc2)(Cc2ccncc2)C(=O)N1C12CC3CC(CC(C3)C1)C2`, the melting point is reported as 284 to 286 °C.
Compound `COc1ccc(C(=O)c2cc(Cl)ccc2NS(=O)(=O)c2ccc(C)cc2)c(O)c1OC` has a melting point of 185 to 187 °C.
With `Cc1oc(-c2ccco2)nc1COc1ccc(CCCn2ccnc2)cc1` the melting point was 89 to 90 °C.
Work on `Cc1cccc(NC(=O)NCC(=O)N(CC(=O)OC(C)(C)C)c2cccc(Cl)c2)c1` yielded a melting point of 110 °C.
Work on `CC(C)c1ccc(-c2ccc3c(c2)C=C(C(=O)Nc2ccc(CN(C)C4CCOCC4)cc2)CCS3(=O)=O)cc1` yielded a melting point of 240 to 247 °C.
In the case of `C=CCN1C(=O)c2cccc3c(N(C)CCO)ccc(c23)C1=O`, the melting point is reported as 90 to 91 °C.
Compound `CON=C(c1ccccc1O)n1ccnc1` has a melting point of 104 °C.
For `COc1ccc(OCC(O)CN2CCC(Nc3nc4ccccc4n3Cc3ccc(F)cc3)CC2)cc1` (stereo unspecified), the melting point was 174 °C.
`CCOC(=O)c1cnn(-c2ccc(OCC(C)(C)C)c(C#N)c2)c1Cl` gave a melting point of 90 to 92 °C.
`COC(=O)c1ccc(-c2c[nH]c(-c3ccc4c(c3)C(C)(C)CCC4(C)C)c2)cc1` showed a melting point of 174 to 175 °C.
With `O=C(Nc1ccccc1)c1cccc([N+](=O)[O-])c1C(=O)Nc1ccccc1` the melting point was 139 to 141 °C.
Work on `O=C1c2ccccc2C(O)N1CCO[N+](=O)[O-]` (stereo unspecified) yielded a melting point of 143 to 145 °C.
In the case of `O=C1CN(C(=O)c2ccccc2)c2ccccc2N1`, the melting point is reported as 208 °C.
For `O=[N+]([O-])c1c(Nc2ccc(O)cc2)ncnc1-c1ccc(C(F)(F)F)cc1F`, the melting point was 169 to 172 °C.
For `Cc1cc(C)c(C(O)c2ccc(C(C)C)cc2)c(O)c1` (stereo unspecified), the melting point was 103 to 104 °C.
Work on `C=CCc1cc2c(c(CC=C)c1O)CCC(=O)N2c1ccc(OC)cc1` yielded a melting point of 154 °C.
With `Cc1cc(Oc2ccc(S(C)(=O)=O)c(S(F)(F)(F)(F)F)c2)c(S(C)(=O)=O)cc1C(=O)NC(=N)N` the melting point was 275 °C.
With `CC(=O)N[C@@H]1C(O)O[C@H](COC(C)=O)[C@@H](O)[C@@H]1O` (stereo partly specified) the melting point was 47 to 51 °C.
Compound `Nc1cccc2c1=NC(=O)C=2c1ccccc1` has a melting point of 226 to 230 °C.
Work on `Cc1ccc(CSc2c(O)cc(C)oc2=O)cc1` yielded a melting point of 134 to 135 °C.
Compound `O=C(CCN1CCC(N2Cc3ccccc3C2=O)CC1)c1ccccc1` has a melting point of 87 to 90 °C.
For `O=C(O)C1CNc2ccccc2CN1` (stereo unspecified), the melting point was 183 to 185 °C.
`CN1Cc2cncn2-c2cccc(Cl)c2C1=O` showed a melting point of 200 to 201 °C.
`CCCCCCCCCCCCCCCCCC(=O)NCCS` gave a melting point of 63 to 65 °C.
Work on `CC(=O)CC(=O)N1C(=N)CCN=C(c2ccccc2)c2cc(Cl)ccc21` yielded a melting point of 149 to 150 °C.
For `O=C(N[C@H](Cc1ccccc1C(F)(F)F)[C@@H](O)c1ccc(F)cc1)c1ccc(F)c2ccccc12` (racemic), the melting point was 200 to 201 °C.
With `O=C(Nc1cccc(C(F)(F)F)c1)N1COc2cc(O)ccc21` the melting point was 173 to 174 °C.
`O=C(Cn1c(-c2ccc(Br)cc2)nc2cccnc21)Nc1ccccc1Cl` gave a melting point of 230 to 232 °C.
For `O=C(O)CCCCCCCCCCCNC(=O)OCc1ccccc1`, the melting point was 84 to 85 °C.
With `CCc1nc2c(N)nc3ccccc3c2n1CC#Cc1ccc(OC)cc1` the melting point was 179 to 181 °C.
For `COC1OCC2C(=O)C3CCCCC3CC12` (stereo unspecified), the melting point was 78 to 79 °C.
`Clc1ccc2[nH]c3c4ccccc4nc-3c(Cl)c2c1` showed a melting point of 281 to 282 °C.
`CC1=C(CC(=O)O)c2cc(F)ccc2C1=Cc1ccc(S(C)(=O)=O)cc1` gave a melting point of 204 to 206 °C.
In the case of `O=C(O)c1cc2c3ccccc3[nH]c(=S)n2n1`, the melting point is reported as 272 to 273 °C.
In the case of `C=C=CC(=O)Nc1ccc2ncnc(Nc3cccc(Br)c3)c2c1`, the melting point is reported as 268 to 270 °C.
With `CCc1c(CNS(=O)(=O)c2cccc(Cl)c2)nn(-c2ccc(Cl)cc2Cl)c1-c1ccc(Br)cc1` the melting point was 169 °C.
Compound `O=c1oc2ccccc2cc1CCN1CCC(Nc2nc3ccccc3n2Cc2ccc(F)cc2)CC1` has a melting point of 168 °C.
Compound `CCn1c(=O)c2c(-c3nc(C4CC4)no3)ncn2c2cccnc21` has a melting point of 262 to 263 °C.
Compound `CCCCC1=NC2(CCCC2)C(=O)N1Cc1ccc(-c2ccccc2S(=O)(=O)Nc2noc(C)c2C)c(COCC)c1` has a melting point of 148 °C.
Work on `CCSc1snc(OCOCC#CI)c1C#N` yielded a melting point of 57 to 58 °C.
`Cn1c(=O)c(-c2ccc(Cl)cc2Cl)cc2c3cc(-c4c[nH]nc4N)ccc3n(C)c21` showed a melting point of 240 to 245 °C.
Compound `O=[N+]([O-])c1ccc2ncnc(Nc3cccc(Br)c3)c2c1` has a melting point of 267 to 270 °C.
`CCCN(CCC)c1c(CC)nn2c(-c3ccc(OC)cc3Cl)cccc12` gave a melting point of 73.6 to 76 °C.
Compound `CCC(C)(C)c1ccc(OCCCCSC2C(=O)N(c3c(Cl)cc(Cl)cc3Cl)N=C2Nc2ccc(Cl)cc2Cl)c(C(C)(C)CC)c1` (stereo unspecified) has a melting point of 142 to 144 °C.
`COc1ccc(CCN2CCC(NC(=O)c3ccccc3)CC2)cc1OC` showed a melting point of 194 to 195 °C.
In the case of `O=C(O)c1cc(S(=O)(=O)O)c2cccnc2c1O`, the melting point is reported as 289 to 291 °C.
In the case of `CCCCC(CCCC)C(=O)O[C@H]1C[C@H](O)C=C2C=C[C@H](C)[C@H](CC[C@@H]3C[C@@H](O)CC(=O)O3)[C@H]21`, the melting point is reported as 143 to 145 °C.
In the case of `CC1(C)C(C(=O)O)C12C=CC=C2` (stereo unspecified), the melting point is reported as 126 to 129 °C.
In the case of `CC(=O)c1ccccc1-c1cccc(C(=O)O)c1`, the melting point is reported as 143 °C.
`O=C(c1ccc(F)cc1)c1ccc(C(c2ccc(C(=O)c3ccc(F)cc3)cc2)(C(F)(F)F)C(F)(F)F)cc1` showed a melting point of 142 to 143 °C.
